In patent publication EP3431468B1, “USE OF ADIPONECTIN RECEPTOR AGONISTS IN TREATING DEPRESSION, ANXIETY AND NEUROINFLAMMATION” (CENTRE NATIONAL DE LA RECHERCHE SCIENTIFIQUE, priority 2017, dated 2019):

What was measured:
[1] = test system: corticosterone-treated mice; assay: Light & Dark test (L&D), chronic administration; format: in vivo; conditions: chronic 1mg/kg ip daily
Experimental: Three well-established mouse models of depression-like behavior have been used in the present study namely i- the long-term corticosterone treatment in the drinking water (David, Samuels et al. 2009), ii- the peripheral administration of LPS (O'Connor, Lawson et al. 2009) iii- the ApN^-/- mice (Liu, Guo et al. 2012). For chronic AdipoRon treatment, the experimental protocol was as followed: • i- Five weeks old male mice (five/cage) received corticosterone (35mg/L dissolved in tap water containing 4 g/L CD) or vehicle alone ad libitum for during 7 consecutive weeks (David, Samuels et al. 2009). Corticosterone and vehicle solutions were changed every 3 days to prevent possible degradation. […]
All behavioral testing were conducted during the light phase (between 09:00 and 14:00 am) in compliance with the Institutional Animal Care and Use Committee of the University of Nice-Sophia Antipolis (permission number 010344.01 from the French "Ministère de l'Enseignement Supérieur et de la Recherche" granted to Dr. Joëlle Chabry). • Forced Swimming test (FST) - Mice were placed an inescapable transparent tank (20cm diameter, 30cm deep) filled with water (23°C ± 0.5) for six minutes as previously described by Porsolt et al. (1977). […] To initiate testing, mice were placed into the light side and activity was recorded for 5 minutes. […]

[2] = test system: pro-inflammatory cytokines (IL1β, IL6, TNFα, IFNγ); assay: Pro-inflammatory cytokines measurement in brain areas (ECL-based assay); format: in vivo; conditions: corticosterone-treated mice, chronic AdipoRon
Experimental: Data were digitized at 5-10 kHz using a Digidata interface coupled to a microcomputer running pClamp 9 (Axon Instruments, USA). Current-clamp data were digitized at 0.5 kHz using the same interface. Potentials were digitally filtered at 1-3 kHz. Average data were expressed as mean ± SEM, n = number of neurons, N = number of mice. • Western blot analysis - Total proteins were extracted from mouse hypothalamus by homogenization in lysis buffer (50mM Tris-HCl, pH7.5, 150mM NaCl, 5mM EDTA containing 0.5% Triton X-100 and 0.5% sodium deoxycholate with a coktail of protease and phosphatase inhibitors). Equal amounts of total proteins (50µg) determined by the Bradford method (BioRad) were separated onto 12% SDS-PAGE, then transferred on nitrocellulose membrane (Schleicher & Schuell, Dassel, Germany). Blots were incubated in PBS 0.1% Tween, 2% BSA with antibodies directed against phospho-AMPKα (Thr172), total AMPK (Cell Signaling), and then with the appropriate HRP-secondary antibody. […] IFNγ, IL1β, IL6, and TNFα, levels were measured using an electro-chemo-luminescence (ECL)-based assay (U-plex, MesoScaleDiscovery) following manufacturer instructions. Results were standardized according to the protein concentration of each sample determined by the Bradford method. • Kynurenine pathway metabolites measurement - Plasma levels of L-kynurenin (L-Kyn), tryptophan (Trp), kynurenin acid (Kyn ac), 5-HT and 5-HIAA were determined as follows: 25µl of plasma was deproteinated with 150µl of cold MeOH. […] Determination of L-Kyn, Trp, Kyn ac, 5-HT and 5-HIAA levels, done in triplicate, were determined by liquid chromatography coupled to MS-MS analysis as previously described with minor modifications (Fuertig, Ceci et al. 2016). • Statistical Analysis - Statistical analyses were performed using GraphPad Prism 4.0 software. Biological parameters and q-PCR data were analyzed using a one-way (treatment) or two-way (pretreatment X treatment) analysis of variance, followed by a post-hoc multiple comparison procedure using the Dunnett's method. […]

## O=C(COc1ccc(C(=O)c2ccccc2)cc1)NC1CCN(Cc2ccccc2)CC1 [AdipoRon, 2-(4-Benzoylphenoxy)-N-[1-(phenylmethyl)-4-piperidinyl]-acetamide]
[1]; corticosterone-treated mice
  time spent in the aversive light chamber (anxiety behavior): reversed the anxiety phenotype
[1]; vehicle-treated mice (no corticosterone)
  time spent in the aversive light chamber (anxiety behavior): without effect
[2]; hippocampus
  corticosterone-induced cytokines differences (IFNγ): abolished
[2]; hypothalamus
  corticosterone-induced cytokines differences (IL1β, TNFα, IFNγ): abolished
[2]; prefrontal cortex
  corticosterone-induced cytokines differences (IL1β, IL6, TNFα): abolished
